Source: paper PMC6683142, “The lipid-dependent structure and function of LacY can be recapitulated and analyzed in phospholipid-containing detergent micelles” (Scientific Reports, 2019)

Biological target: T1, lactose permease (LacY) (Escherichia coli, UniProt P02920, C154G)
T1 construct: LacY with all six native Trp residues and a C-terminal His6-Tag, DDM-solubilized, purified from PE-containing cells (correct topology)
T1 sequence (P02920 1-417 C154G): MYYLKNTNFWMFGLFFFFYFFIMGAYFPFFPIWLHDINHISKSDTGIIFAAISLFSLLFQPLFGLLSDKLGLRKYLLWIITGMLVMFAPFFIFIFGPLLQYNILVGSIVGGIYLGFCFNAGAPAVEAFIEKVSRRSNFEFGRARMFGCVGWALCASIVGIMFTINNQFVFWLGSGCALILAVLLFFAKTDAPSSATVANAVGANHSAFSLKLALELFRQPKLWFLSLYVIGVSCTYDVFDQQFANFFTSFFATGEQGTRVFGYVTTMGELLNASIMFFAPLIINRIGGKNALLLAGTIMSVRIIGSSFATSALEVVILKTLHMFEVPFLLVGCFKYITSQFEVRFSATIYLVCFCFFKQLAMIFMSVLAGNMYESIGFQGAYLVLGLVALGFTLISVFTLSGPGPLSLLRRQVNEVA
Test: Trp → α-NPG FRET (quenching of W151) on purified protein in DDM micelles
Type: binding

SMILES: O=[N+]([O-])c1ccc(O[C@H]2O[C@H](CO)[C@H](O)[C@H](O)[C@H]2O)cc1 [α-NPG]
- Kd: 5.9 µM
